According to patent US20230203003A1, “Notch Inhibitors and Uses Thereof” (StemSynergy Therapeutics, Inc., priority 2020, published 2023):
Where a name gives a salt, the structure may show the parent alone. Read-outs that look alike come from different tables or passages of the source.

Columns and labels:
Assay type in all cases: cell-based
Notch1 = Notch1 Reporter Assay
hNotch1ICD = molecular target: T1, hNotch1ICD (Homo sapiens, UniProt P46531); assay: Notch1 Reporter Assay (Dox-inducible Notch1-ICD, CSL-responsive luciferase in 293A cells); conditions: 293A cells, 24 h, luciferase normalized to cell viability; read-out: Notch1 Reporter Assay IC50
T1 construct: pLV[Tet]-Puro-TRE3G>Notch1-ICD; expressed in transfected cells; host or cells: 293A cells
Description: 293A cells expressing 1) pCMV-Tet-On 3G, 2) pLV[Tet]-Puro-TRE3G>Notch1-ICD, 3) pLV[Tet]-Puro-TRE3G>Notch2-ICD, 4) pLV[Tet]-Puro-TRE3G>Notch3-ICD, and 5) pCSL-RElement-Luc were used. When Doxycycline is added, the Tet-ON gene activates expression of hNotch1ICD, which together with endogenous NTC components binds to CSL responsive elements (pCSL-RElement-Luc) and expresses luciferase. 1 ×× 10^4 cells are plated in 100 µL (96-well format). 24 h later, compounds (10 mM stock in DMSO) are diluted in DMSO to 200X, then added (5 ul into 1 mL) to cell culture media containing 50 ng/mL Dox. This is then added 1:1 to cells. Final DMSO = 0.25%, Dox = 25 ng/mL. After 24 h, media is discarded, and cells are lysed in passive lysis buffer (Promega). Cells are rocked at room temperature for 15 min and then lysate is divided for luciferase assay (Luciferase Assay System, Promega) and cell viability (CellTiter Glo 2.0, Promega). Raw luciferase is normalized to cell viability, and then scaled to DMSO wells. Results are analyzed and IC50′s are determined in GraphPad by nonlinear regression curve fitting (4 parameter) of dose response curves.

[1] = test system: OE33 Esophageal Adenocarcinoma cell line; assay: OE33 Colony Formation Assay; conditions: Homo sapiens, OE33, 168 h, OE33 cells, 200 cells/well, 7 days, CellTiter-Glo
Description: OE33 Colony Formation Assay
The OE33 Esophageal Adenocarcinoma cell line was cultured and plated into 96-well tissue culture plates under sparse conditions (200 cells/well). Test compounds were serially diluted in DMSO and then into culture media (final DMSO concentration = 0.1%). Compound/media was then added to cells every 48 hours for a total of 7 days. Clonogenic growth was assessed using the CellTiter-Glo reagent, according to manufacturer (Promega) specifications. Percent inhibition was calculated as the percent of luminescence normalized to control (0.1% DMSO) wells. Nonlinear regression curve fitting was performed using GraphPad Prism software to determine EC50′s.

T1 sequence (P46531 1754-2555 limits assumed): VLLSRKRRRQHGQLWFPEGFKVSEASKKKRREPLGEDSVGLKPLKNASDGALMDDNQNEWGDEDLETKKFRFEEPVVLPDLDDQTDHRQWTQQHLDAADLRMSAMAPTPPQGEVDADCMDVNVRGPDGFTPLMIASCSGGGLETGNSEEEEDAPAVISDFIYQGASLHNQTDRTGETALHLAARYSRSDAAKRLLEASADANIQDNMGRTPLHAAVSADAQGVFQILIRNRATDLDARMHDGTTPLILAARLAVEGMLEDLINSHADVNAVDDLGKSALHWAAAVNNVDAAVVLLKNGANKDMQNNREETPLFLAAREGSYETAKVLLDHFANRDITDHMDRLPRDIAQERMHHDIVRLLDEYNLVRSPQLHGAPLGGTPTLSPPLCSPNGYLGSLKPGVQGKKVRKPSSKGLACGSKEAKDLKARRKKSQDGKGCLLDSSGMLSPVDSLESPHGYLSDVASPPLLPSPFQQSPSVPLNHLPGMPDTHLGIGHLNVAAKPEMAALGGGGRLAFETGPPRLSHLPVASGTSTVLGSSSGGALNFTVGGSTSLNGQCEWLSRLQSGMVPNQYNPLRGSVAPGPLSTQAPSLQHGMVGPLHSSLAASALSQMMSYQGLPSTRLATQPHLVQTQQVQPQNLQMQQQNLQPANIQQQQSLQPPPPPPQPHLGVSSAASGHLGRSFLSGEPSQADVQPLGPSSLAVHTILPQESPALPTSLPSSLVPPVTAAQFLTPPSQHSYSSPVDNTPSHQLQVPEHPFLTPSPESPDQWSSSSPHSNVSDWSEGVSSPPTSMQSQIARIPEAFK

SMILES | IC50 (Notch1) [µM] | IC50 (Notch1; Formate Salt) [µM] | EC50 [1] [µM] | IC50 (hNotch1ICD) [µM]
CC(C)Cn1c(=O)c(C(=O)Nc2cc(F)ccc2N2CCN(C)CC2)c(O)c2ccccc21 [571(02)] | – | – | 2.5 | 7.9
CC(C)Cn1c(=O)c(C(=O)Nc2ccc(N3CCN(C)CC3)cc2)c(O)c2ccccc21 [569(02)] | – | – | 1.8 | 4.9
CC(C)Cn1c(=O)c(C(=O)Nc2ccccc2N2CCN(C)CC2)c(O)c2ccccc21 [568(02)] | – | – | 2.6 | 6.8

The next lines start with results.

IC50 (Notch1) [µM] | IC50 (Notch1; Formate Salt) [µM] | EC50 [1] [µM] | SMILES | IC50 (hNotch1ICD) [µM]
7.7 | – | – | CC(C)Cn1c(=O)c(C(=O)Nc2cccc(N3CCN(C)CC3)c2)c(O)c2ccccc21 [SSTN-560_HCI salt, 4-hydroxy-1-isobutyl-N-(3-(4-methylpiperazin-1-yl)phenyl)-2-oxo-1,2-dihydroquinoline-3-carboxamide] | –
14.2 | – | – | CC(C)Cn1c(=O)c(C(=O)Nc2cccc(N3CCN(C)CC3)c2)c(O)c2ccccc21 [SSTN-560, 4-hydroxy-1-isobutyl-N-(3-(4-methylpiperazin-1-yl)phenyl)-2-oxo-1,2-dihydroquinoline-3-carboxamide] | –
– | 10.2 | – | CC(C)Cn1c(=O)c(C(=O)Nc2cccc(N3CCN(C)CC3)c2)c(O)c2ccccc21 [SSTN-560 Formate Salt, 4-Hydroxy-1-Isobutyl-N-(3-(4-Methylpiperazin-1-Yl)Phenyl)-2-Oxo-1,2-Dihydroquinoline-3-Carboxamide Formate Salt] | –
– | – | 0.66 | CC(C)Cn1c(=O)c(C(=O)Nc2cccc(F)c2)c(O)c2cc(N3CCN(C)CC3)ccc21 [577(02)] | 6.4
– | – | 0.9 | CC(C)Cn1c(=O)c(C(=O)Nc2cccc(N3CCNCC3)c2)c(O)c2ccccc21 [compound 552, 4-hydroxy-1-isobutyl-2-oxo-N-(3-(piperazin-1-yl)phenyl)-1,2-dihydroquinoline-3-carboxamide trifluoro aceticacid] | 4.3
